Experimental data: PubChem BioAssay AID1963424 (Molecular Pharmacology Branch, DTP, NCI, 2024)
Where “and” joins values, the source holds several entries; their conditions need not be identical. Equal entries are not always repeated.

System: 327498-153-R-J2-PDC complex spheroid growth, % test/control
Assay: Anticancer human tumor 327498-153-R-J2-PDC patient-derived uterine carcinosarcoma cell line growth inhibition [Asc]
Details: for viability, T/C: stronger effect = lower value
In short: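 Tumor cells were grown as multicellular spheroids with stromal HUVEC and mesenchymal stem cells and treated singly or in combination. Concentrations fell in half-log steps from the clinical Cmax, or from 10 microM where none was known.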

[1] = curve of first compound, second compound 0.1 µM
[2] = curve of first compound, second compound 0.316 µM
[3] = curve of first compound, second compound 1 µM
[4] = curve of first compound, second compound 3.16 µM
[5] = curve of first compound, second compound 10 µM
[6] = second compound 0.1 µM, first compound 0.00949 µM
[7] = second compound 0.1 µM, first compound 0.03 µM
[8] = second compound 0.1 µM, first compound 0.0949 µM
[9] = second compound 0.1 µM, first compound 0.3 µM
[10] = second compound 0.316 µM, first compound 0.00949 µM
[11] = second compound 0.316 µM, first compound 0.03 µM
[12] = second compound 0.316 µM, first compound 0.0949 µM
[13] = second compound 0.316 µM, first compound 0.3 µM
[14] = second compound 1 µM, first compound 0.00949 µM
[15] = second compound 1 µM, first compound 0.03 µM
[16] = second compound 1 µM, first compound 0.0949 µM
[17] = second compound 1 µM, first compound 0.3 µM
[18] = second compound 0.1 µM, first compound 0.00316 µM
[19] = second compound 0.1 µM, first compound 0.01 µM
[20] = second compound 0.1 µM, first compound 0.0316 µM
[21] = second compound 0.1 µM, first compound 0.1 µM
[22] = second compound 0.316 µM, first compound 0.00316 µM
[23] = second compound 0.316 µM, first compound 0.01 µM
[24] = second compound 0.316 µM, first compound 0.0316 µM
[25] = second compound 0.316 µM, first compound 0.1 µM
[26] = second compound 1 µM, first compound 0.00316 µM
[27] = second compound 1 µM, first compound 0.01 µM
[28] = second compound 1 µM, first compound 0.0316 µM
[29] = second compound 1 µM, first compound 0.1 µM
[30] = second compound 3.16 µM, first compound 0.00316 µM
[31] = second compound 3.16 µM, first compound 0.01 µM
[32] = second compound 3.16 µM, first compound 0.0316 µM
[33] = second compound 3.16 µM, first compound 0.1 µM
[34] = second compound 10 µM, first compound 0.00316 µM
[35] = second compound 10 µM, first compound 0.01 µM
[36] = second compound 10 µM, first compound 0.0316 µM
[37] = second compound 10 µM, first compound 0.1 µM
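Further: spheroids exposed to compound for 7 days after 3 days of growth.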
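Wherever viability, T/C is given: 100% = DMSO vehicle control wells.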

## Cc1nc(N2CCC3(CC2)COC(C)C3N)c(CO)nc1Sc1ccnc(N)c1Cl (configuration not stated) + Cc1c(S(C)(=O)=O)c(-c2cc(F)cc(N3CCN(c4ccc(NS(=O)(=O)c5ccc(NC(CCN6CCC(C(=O)OCCCP(=O)(O)O)CC6)CSc6ccccc6)c(S(=O)(=O)C(F)(F)F)c5)cc4)CC3)c2)c(-c2ccc(Cl)cc2)n1C(C)C
[1]
  IC50: 1560 nM
[2]
  IC50: 625 nM
[3]
  IC50: 594 nM
[4]
  IC50: 829 nM
[5]
  IC50: > 3000 nM
[6]
  viability, T/C: 98.7%
[7]
  viability, T/C: 90.4%
[8]
  viability, T/C: 83.8%
[9]
  viability, T/C: 65.8%
Second compound 0.1 µM, first compound 0.949 µM
  viability, T/C: 54.8%
Second compound 0.1 µM, first compound 3 µM
  viability, T/C: 44.5%
[10]
  viability, T/C: 94.9%
[11]
  viability, T/C: 94.2%
[12]
  viability, T/C: 70.2%
[13]
  viability, T/C: 59.5%
Second compound 0.316 µM, first compound 0.949 µM
  viability, T/C: 46.6%
Second compound 0.316 µM, first compound 3 µM
  viability, T/C: 38.9%
[14]
  viability, T/C: 95.3%
[15]
  viability, T/C: 93.6%
[16]
  viability, T/C: 68.6%
[17]
  viability, T/C: 58.4%
Second compound 1 µM, first compound 0.949 µM
  viability, T/C: 47.1%
Second compound 1 µM, first compound 3 µM
  viability, T/C: 38.3%
Second compound 3.16 µM, first compound 0.00949 µM
  viability, T/C: 98%
Second compound 3.16 µM, first compound 0.03 µM
  viability, T/C: 92%
Second compound 3.16 µM, first compound 0.0949 µM
  viability, T/C: 65.1%
Second compound 3.16 µM, first compound 0.3 µM
  viability, T/C: 64.6%
Second compound 3.16 µM, first compound 0.949 µM
  viability, T/C: 47%
Second compound 3.16 µM, first compound 3 µM
  viability, T/C: 42.5%
Second compound 10 µM, first compound 0.00949 µM
  viability, T/C: 179%
Second compound 10 µM, first compound 0.03 µM
  viability, T/C: 178%
Second compound 10 µM, first compound 0.0949 µM
  viability, T/C: 145%
Second compound 10 µM, first compound 0.3 µM
  viability, T/C: 142%
Second compound 10 µM, first compound 0.949 µM
  viability, T/C: 138%
Second compound 10 µM, first compound 3 µM
  viability, T/C: 117%

## CCN1CCN(Cc2ccc(Nc3ncc(F)c(-c4cc(F)c5nc(C)n(C(C)C)c5c4)n3)nc2)CC1 + Cc1c(S(C)(=O)=O)c(-c2cc(F)cc(N3CCN(c4ccc(NS(=O)(=O)c5ccc(NC(CCN6CCC(C(=O)OCCCP(=O)(O)O)CC6)CSc6ccccc6)c(S(=O)(=O)C(F)(F)F)c5)cc4)CC3)c2)c(-c2ccc(Cl)cc2)n1C(C)C
[1]
  IC50: > 1000 nM
[2]
  IC50: > 1000 nM
[3]
  IC50: > 1000 nM
[4]
  IC50: > 1000 nM
[5]
  IC50: > 1000 nM
[18]
  viability, T/C: 101%
[19]
  viability, T/C: 94.9%
[20]
  viability, T/C: 76.3%
[21]
  viability, T/C: 64.1%
Second compound 0.1 µM, first compound 0.316 µM
  viability, T/C: 64.5%
Second compound 0.1 µM, first compound 1 µM
  viability, T/C: 67.8%
[22]
  viability, T/C: 94.7%
[23]
  viability, T/C: 95.2%
[24]
  viability, T/C: 78.2%
[25]
  viability, T/C: 63.9%
Second compound 0.316 µM, first compound 0.316 µM
  viability, T/C: 49.7%
Second compound 0.316 µM, first compound 1 µM
  viability, T/C: 55.8%
[26]
  viability, T/C: 95.3%
[27]
  viability, T/C: 93%
[28]
  viability, T/C: 85.9%
[29]
  viability, T/C: 65.7%
Second compound 1 µM, first compound 0.316 µM
  viability, T/C: 56.9%
Second compound 1 µM, first compound 1 µM
  viability, T/C: 57.2%
[30]
  viability, T/C: 105%
[31]
  viability, T/C: 94.7%
[32]
  viability, T/C: 72.1%
[33]
  viability, T/C: 55.8%
Second compound 3.16 µM, first compound 0.316 µM
  viability, T/C: 62.3%
Second compound 3.16 µM, first compound 1 µM
  viability, T/C: 49.5%
[34]
  viability, T/C: 184%
[35]
  viability, T/C: 172%
[36]
  viability, T/C: 145%
[37]
  viability, T/C: 105%
Second compound 10 µM, first compound 0.316 µM
  viability, T/C: 96%
Second compound 10 µM, first compound 1 µM
  viability, T/C: 79.4%

## NC(=O)C(=Cn1cnc(-c2cc(C(F)(F)F)cc(C(F)(F)F)c2)n1)c1cncnc1 + CNC(C)C(=O)NC1CN(S(=O)(=O)c2cccc(S(=O)(=O)N3CCC4CCC(C(=O)NC(c5ccccc5)c5ccccc5)N4C(=O)C(NC(=O)C(C)NC)C3)c2)CCC2CCC(C(=O)NC(c3ccccc3)c3ccccc3)N2C1=O
Curve of first compound, second compound 0.01 µM
  IC50: 38.6 nM
Curve of first compound, second compound 0.0316 µM
  IC50: 40.1 nM
[1]
  IC50: 40.9 nM
[2]
  IC50: 40.9 nM
[3]
  IC50: 46 nM
Second compound 0.01 µM, first compound 0.000949 µM
  viability, T/C: 93%
Second compound 0.01 µM, first compound 0.003 µM
  viability, T/C: 111%
Second compound 0.01 µM, first compound 0.00949 µM
  viability, T/C: 84.5%
Second compound 0.01 µM, first compound 0.03 µM
  viability, T/C: 63%
Second compound 0.01 µM, first compound 0.0949 µM
  viability, T/C: 12.1%
Second compound 0.01 µM, first compound 0.3 µM
  viability, T/C: 1.73%
Second compound 0.0316 µM, first compound 0.000949 µM
  viability, T/C: 90.1%
Second compound 0.0316 µM, first compound 0.003 µM
  viability, T/C: 91.5%
Second compound 0.0316 µM, first compound 0.00949 µM
  viability, T/C: 88%
Second compound 0.0316 µM, first compound 0.03 µM
  viability, T/C: 63.8%
Second compound 0.0316 µM, first compound 0.0949 µM
  viability, T/C: 9.05%
Second compound 0.0316 µM, first compound 0.3 µM
  viability, T/C: 1.71%
Second compound 0.1 µM, first compound 0.000949 µM
  viability, T/C: 92.8%
Second compound 0.1 µM, first compound 0.003 µM
  viability, T/C: 94.4%
[6]
  viability, T/C: 85.8%
[7]
  viability, T/C: 65.4%
[8]
  viability, T/C: 9.53%
[9]
  viability, T/C: 1.32%
Second compound 0.316 µM, first compound 0.000949 µM
  viability, T/C: 91.9%
Second compound 0.316 µM, first compound 0.003 µM
  viability, T/C: 91.8%
[10]
  viability, T/C: 88.4%
[11]
  viability, T/C: 65%
[12]
  viability, T/C: 9.52%
[13]
  viability, T/C: 1.32%
Second compound 1 µM, first compound 0.000949 µM
  viability, T/C: 102%
Second compound 1 µM, first compound 0.003 µM
  viability, T/C: 92.1%
[14]
  viability, T/C: 82.2%
[15]
  viability, T/C: 75.2%
[16]
  viability, T/C: 7.78%
[17]
  viability, T/C: 1.13%

## NC1CCC(NC2CC2c2ccccc2)CC1 (configuration not stated) + Cc1c(S(C)(=O)=O)c(-c2cc(F)cc(N3CCN(c4ccc(NS(=O)(=O)c5ccc(NC(CCN6CCC(C(=O)OCCCP(=O)(O)O)CC6)CSc6ccccc6)c(S(=O)(=O)C(F)(F)F)c5)cc4)CC3)c2)c(-c2ccc(Cl)cc2)n1C(C)C
[1]
  IC50: > 100 nM
[2]
  IC50: > 100 nM
[3]
  IC50: > 100 nM
[4]
  IC50: > 100 nM
[5]
  IC50: > 100 nM
Second compound 0.1 µM, first compound 0.000316 µM
  viability, T/C: 98.9%
Second compound 0.1 µM, first compound 0.001 µM
  viability, T/C: 109%
[18]
  viability, T/C: 104%
[19]
  viability, T/C: 95.6%
[20]
  viability, T/C: 100%
[21]
  viability, T/C: 98%
Second compound 0.316 µM, first compound 0.000316 µM
  viability, T/C: 89.6%
Second compound 0.316 µM, first compound 0.001 µM
  viability, T/C: 99.5%
[22]
  viability, T/C: 95%
[23]
  viability, T/C: 88.3%
[24]
  viability, T/C: 93.8%
[25]
  viability, T/C: 95.5%
Second compound 1 µM, first compound 0.000316 µM
  viability, T/C: 94.2%
Second compound 1 µM, first compound 0.001 µM
  viability, T/C: 96.6%
[26]
  viability, T/C: 90.4%
[27]
  viability, T/C: 91.5%
[28]
  viability, T/C: 96.8%
[29]
  viability, T/C: 90.6%
Second compound 3.16 µM, first compound 0.000316 µM
  viability, T/C: 98.9%
Second compound 3.16 µM, first compound 0.001 µM
  viability, T/C: 91.4%
[30]
  viability, T/C: 92.6%
[31]
  viability, T/C: 86.3%
[32]
  viability, T/C: 96.8%
[33]
  viability, T/C: 90.1%
Second compound 10 µM, first compound 0.000316 µM
  viability, T/C: 177%
Second compound 10 µM, first compound 0.001 µM
  viability, T/C: 173%
[34]
  viability, T/C: 160%
[35]
  viability, T/C: 158%
[36]
  viability, T/C: 168%
[37]
  viability, T/C: 181%

## O=C(c1cc(Cc2n[nH]c(=O)c3ccccc23)ccc1F)N1CCN(C(=O)C2CC2)CC1
Compound 0.0316 µM
  viability, T/C: 86.5% and 104% and 109%
Compound 0.1 µM
  viability, T/C: 89.6% and 99.6% and 105%
Compound 0.316 µM
  viability, T/C: 92.9% and 93.8% and 98%
Compound 1 µM
  viability, T/C: 78.8% and 89.2% and 93.4%
Compound 3.16 µM
  viability, T/C: 58.8% and 71.2% and 71.8%
Compound 10 µM
  viability, T/C: 18.3% and 19.8% and 20.8%
Curve of compound
  IC50: 4010 nM and 5010 nM and 5130 nM
